Test results from US10934310B2, “Inhibitors of Bruton's tyrosine kinase and method of their use” (JANSSEN PHARMACEUTICA NV, priority 2015, dated 2021).

Target: unphosphorylated-BTK kinase domain (UP-BTK), GST-tagged human BTK (389-659aa) (Homo sapiens (Human), UniProt Q06187)
Assay: BTK Kinase Lanthascreen Binding Assay
Conditions: Lanthascreen binding, 60 minutes incubation; pIC50 = negative log of the IC50 in molar
Method: BTK Kinase Lanthascreen Binding Assay:
A BTK kinase lanthascreen binding assay monitors compound binding to unphosphorylated-BTK kinase domain (UP-BTK), by competing with a fluorescent labeled tracer. […] Data were analyzed using Xlfit™ version 5.3 from ID Business Solutions (Guildford), Microsoft Excel add-in. pIC50 refers to the negative log of the IC50 in molar.

Sequence of unphosphorylated-BTK kinase domain (UP-BTK), GST-tagged human BTK (389-659aa) (Q06187 389-659): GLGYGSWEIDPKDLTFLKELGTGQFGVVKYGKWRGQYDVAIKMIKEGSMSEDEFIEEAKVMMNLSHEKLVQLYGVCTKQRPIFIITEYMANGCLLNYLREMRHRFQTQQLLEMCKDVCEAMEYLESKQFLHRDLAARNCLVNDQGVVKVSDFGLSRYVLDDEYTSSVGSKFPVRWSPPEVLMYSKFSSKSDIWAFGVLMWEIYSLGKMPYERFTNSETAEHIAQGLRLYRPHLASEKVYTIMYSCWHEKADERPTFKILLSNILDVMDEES

BTK_I_binding pIC50	Compound
7.68	C=CC(=O)N[C@@H]1CCC[C@H]1NC(=O)c1sc2nccc3c2c1NC(=O)N3c1cnc(CC(C)C)cc1C (single isomer, unassigned) [Example 382, N-((1R,2R)-2-Acrylamidocyclopentyl)-5-(*S)-(6-isobutyl-4-methylpyridin-3-yl)-4-oxo-4,5-dihydro-3H-1-thia-3,5,8-triazaacenaphthylene-2-carboxamide]
7.98	CCC(=O)N[C@H]1CCC[C@@H](NC(=O)c2sc3nccc4c3c2NC(=O)N4c2cnc(Oc3ccccc3)cc2C)C1 (single isomer, unassigned) [Example 385, 5-(*S)-(4-Methyl-6-phenoxypyridin-3-yl)-4-oxo-N-((1R,3S)-3-propionamidocyclohexyl)-4,5-dihydro-3H-1-thia-3,5,8-triazaacenaphthylene-2-carboxamide]
7.64	CCC(=O)N[C@@H]1CC[C@@H](NC(=O)c2sc3nccc4c3c2NC(=O)N4c2cnc(Oc3ccccc3)cc2C)C1 (single isomer, unassigned) [Example 388, 5-(*S)-(4-Methyl-6-phenoxypyridin-3-yl)-4-oxo-N-((1R,3R)-3-propionamidocyclopentyl)-4,5-dihydro-3H-1-thia-3,5,8-triazaacenaphthylene-2-carboxamide]
7.30	CC(=O)N[C@H]1CC[C@@H](NC(=O)c2sc3nccc4c3c2NC(=O)N4c2cnc(Oc3ccccc3)cc2C)CC1 (single isomer, unassigned) [Example 389, N-((1S,4S)-4-Acetamidocyclohexyl)-5-(*S)-(4-methyl-6-phenoxypyridin-3-yl)-4-oxo-4,5-dihydro-3H-1-thia-3,5,8-triazaacenaphthylene-2-carboxamide]
8.04	CCC(=O)N[C@@H]1CC[C@H](NC(=O)c2sc3nccc4c3c2NC(=O)N4c2cnc(Oc3ccccc3)cc2C)C1 (single isomer, unassigned) [Example 390, 5-(*S)-(4-Methyl-6-phenoxypyridin-3-yl)-4-oxo-N-((1S,3R)-3-propionamidocyclopentyl)-4,5-dihydro-3H-1-thia-3,5,8-triazaacenaphthylene-2-carboxamide]
7.86	CC(=O)N[C@@H]1CC[C@H](NC(=O)c2sc3nccc4c3c2NC(=O)N4c2cnc(Oc3ccccc3)cc2C)C1 (single isomer, unassigned) [Example 391, N-((1S,3R)-3-Acetamidocyclopentyl)-5-(*S)-(4-methyl-6-phenoxypyridin-3-yl)-4-oxo-4,5-dihydro-3H-1-thia-3,5,8-triazaacenaphthylene-2-carboxamide]
7.34	CC(=O)N[C@@H]1CC[C@@H](NC(=O)c2sc3nccc4c3c2NC(=O)N4c2cnc(Oc3ccccc3)cc2C)C1 (single isomer, unassigned) [Example 392, N-((1R,3R)-3-Acetamidocyclopentyl)-5-(*S)-(4-methyl-6-phenoxypyridin-3-yl)-4-oxo-4,5-dihydro-3H-1-thia-3,5,8-triazaacenaphthylene-2-carboxamide]
6.70	Cc1cc(OC2CCCC2)ncc1N1C(=O)Nc2c(C(=O)N[C@@H]3CC[C@H](N)C3)sc3nccc1c23 (single isomer, unassigned) [Example 394, N-((1R,3S)-3-Aminocyclopentyl)-5-(*S)-(6-(cyclopentyloxy)-4-methylpyridin-3-yl)-4-oxo-4,5-dihydro-3H-1-thia-3,5,8-triazaacenaphthylene-2-carboxamide]
6.66	CC(=O)N[C@H]1CC[C@H](NC(=O)c2sc3nccc4c3c2NC(=O)N4c2cnc(Oc3ccccc3)cc2C)C1 (single isomer, unassigned) [Example 395, N-((1S,3S)-3-Acetamidocyclopentyl)-5-(*S)-(4-methyl-6-phenoxypyridin-3-yl)-4-oxo-4,5-dihydro-3H-1-thia-3,5,8-triazaacenaphthylene-2-carboxamide]
6.51	CCC(=O)N[C@H]1CC[C@H](NC(=O)c2sc3nccc4c3c2NC(=O)N4c2cnc(Oc3ccccc3)cc2C)C1 (single isomer, unassigned) [Example 399, 5-(*S)-(4-Methyl-6-phenoxypyridin-3-yl)-4-oxo-N-((1S,3S)-3-propionamidocyclopentyl)-4,5-dihydro-3H-1-thia-3,5,8-triazaacenaphthylene-2-carboxamide]
6.46	CC(=O)N[C@H]1CCC[C@H](NC(=O)c2sc3nccc4c3c2NC(=O)N4c2cnc(Oc3ccccc3)cc2C)C1 (single isomer, unassigned) [Example 400, N-((1S,3S)-3-Acetamidocyclohexyl)-5-(*S)-(4-methyl-6-phenoxypyridin-3-yl)-4-oxo-4,5-dihydro-3H-1-thia-3,5,8-triazaacenaphthylene-2-carboxamide]
6.38	CCC(=O)N[C@H]1CCC[C@H](NC(=O)c2sc3nccc4c3c2NC(=O)N4c2cnc(Oc3ccccc3)cc2C)C1 (single isomer, unassigned) [Example 402, 5-(*S)-(4-Methyl-6-phenoxypyridin-3-yl)-4-oxo-N-((1S,3S)-3-propionamidocyclohexyl)-4,5-dihydro-3H-1-thia-3,5,8-triazaacenaphthylene-2-carboxamide]
6.26	CC(=O)N[C@H]1CC[C@@H](NC(=O)c2sc3nccc4c3c2NC(=O)N4c2cnc(Oc3ccccc3)cc2C)C1 (single isomer, unassigned) [Example 403, N-((1R,3S)-3-Acetamidocyclopentyl)-5-(*S)-(4-methyl-6-phenoxypyridin-3-yl)-4-oxo-4,5-dihydro-3H-1-thia-3,5,8-triazaacenaphthylene-2-carboxamide]
6.05	CC(=O)NC1CCC[C@H](NC(=O)c2sc3nccc4c3c2NC(=O)N4c2cnc(Oc3ccccc3)cc2C)C1 (single isomer, unassigned) [Example 407, N-((1S,3R)-3-Acetamidocyclohexyl)-5-(*S)-(4-methyl-6-phenoxypyridin-3-yl)-4-oxo-4,5-dihydro-3H-1-thia-3,5,8-triazaacenaphthylene-2-carboxamide]

Compound	BTK_I_binding pIC50
Cc1cc(OCC(C)C)ncc1N1C(=O)Nc2c(C(=O)N[C@@H]3CCC[C@@H]3N)sc3nccc1c23 (single isomer, unassigned) [Example 397, N-((1R,2S)-2-Aminocyclopentyl)-5-(*S)-(6-isobutoxy-4-methylpyridin-3-yl)-4-oxo-4,5-dihydro-3H-1-thia-3,5,8-triazaacenaphthylene-2-carboxamide]	6.62
C=CC(=O)N[C@@H]1CCCC[C@H]1NC(=O)c1sc2nccc3c2c1NC(=O)N3c1cnc(CC(C)C)cc1C (single isomer, unassigned) [Example 404, N-((1R,2R)-2-Acrylamidocyclohexyl)-5-(*S)-(6-isobutyl-4-methylpyridin-3-yl)-4-oxo-4,5-dihydro-3H-1-thia-3,5,8-triazaacenaphthylene-2-carboxamide]	6.21
Cc1cc(OCC(C)C)ncc1N1C(=O)Nc2c(C(=O)N[C@@H]3CC[C@H](N)C3)sc3nccc1c23 (single isomer, unassigned) [Example 405, N-((1R,3S)-3-Aminocyclopentyl)-5-(*S)-(6-isobutoxy-4-methylpyridin-3-yl)-4-oxo-4,5-dihydro-3H-1-thia-3,5,8-triazaacenaphthylene-2-carboxamide]	6.16

Same assay, conditions: read-out: BTK_I_binding pIC50 (converted)

IC50 [nM]	Compound
> 1000	CCC(=O)N[C@H]1CC[C@H](NC(=O)c2sc3nccc4c3c2NC(=O)N4c2ccc(Oc3ccccc3)nc2C)C1 (single isomer, unassigned) [Example 409, 5-(*S)-(2-Methyl-6-phenoxypyridin-3-yl)-4-oxo-N-((1S,3S)-3-propionamidocyclopentyl)-4,5-dihydro-3H-1-thia-3,5,8-triazaacenaphthylene-2-carboxamide]
> 1000	CC(=O)N[C@H]1CC[C@H](NC(=O)c2sc3nccc4c3c2NC(=O)N4c2ccc(Oc3ccccc3)nc2C)C1 (single isomer, unassigned) [Example 410, N-((1S,3S)-3-Acetamidocyclopentyl)-5-(*S)-(2-methyl-6-phenoxypyridin-3-yl)-4-oxo-4,5-dihydro-3H-1-thia-3,5,8-triazaacenaphthylene-2-carboxamide]
> 1000	C=CC(=O)N[C@@H]1CCC[C@H](NC(=O)c2sc3nccc4c3c2NC(=O)N4c2ccc(Oc3ccccc3)nc2C)C1 (single isomer, unassigned) [Example 411, N-((1S,3R)-3-Acrylamidocyclohexyl)-5-(*S)-(2-methyl-6-phenoxypyridin-3-yl)-4-oxo-4,5-dihydro-3H-1-thia-3,5,8-triazaacenaphthylene-2-carboxamide]
> 1000	CCC(=O)N[C@@H]1CCC[C@H](NC(=O)c2sc3nccc4c3c2NC(=O)N4c2ccc(Oc3ccccc3)nc2C)C1 (single isomer, unassigned) [Example 412, 5-(*S)-(2-Methyl-6-phenoxypyridin-3-yl)-4-oxo-N-((1S,3R)-3-propionamidocyclohexyl)-4,5-dihydro-3H-1-thia-3,5,8-triazaacenaphthylene-2-carboxamide]
> 1000	CC(=O)N[C@@H]1CCC[C@H](NC(=O)c2sc3nccc4c3c2NC(=O)N4c2ccc(Oc3ccccc3)nc2C)C1 (single isomer, unassigned) [Example 413, N-((1S,3R)-3-Acetamidocyclohexyl)-5-(*S)-(2-methyl-6-phenoxypyridin-3-yl)-4-oxo-4,5-dihydro-3H-1-thia-3,5,8-triazaacenaphthylene-2-carboxamide]
> 1000	Cc1nc(Oc2ccccc2)ccc1N1C(=O)Nc2c(C(=O)N[C@H]3CCC[C@@H](N)C3)sc3nccc1c23 (single isomer, unassigned) [Example 414, N-((1S,3R)-3-Aminocyclohexyl)-5-(*S)-(2-methyl-6-phenoxypyridin-3-yl)-4-oxo-4,5-dihydro-3H-1-thia-3,5,8-triazaacenaphthylene-2-carboxamide]
